# Test results: patent EP0387527A1, “Process for the fermentative production of L-lysine” (Degussa Aktiengesellschaft, priority 1989, dated 1990)
# Read-outs that look alike come from different tables or passages of the source.
# Columns and labels:
# Assay type in all cases: biochemical
# [1] = target: Aspartat-Kinase (AK) aus C. glutamicum DM58-1 (AEC resistente Mutante von ATCC13032) (Corynebacterium glutamicum, UniProt P26512); test: Aspartate kinase test (hydroxamate), inhibition by effector combinations, dialysed crude extract
# Protocol: (§1) Die Stämme ATCC13032 und DM58-1 wurden unter direkt vergleichbaren Bedingungen in Standard I Bouillon (Merck Art. Nr. 7882) mit zusätzlichen 4 g/l Glucose und 1 mM MgCl₂ bei 30 °C und 150 rpm bis zum Erreichen der früh stationären Phase kultiviert und durch Zentrifugation vom Kulturmedium getrennt. Man wäscht 3 Mal mit 100 mM Tris/HCl (pH 7,5); 1 mM DTT und suspendiert die Feuchtzellmasse in einem Volumenteil des gleiche Puffers.
# (§2) Die so suspendierten Zellen wurden in einer Kugelmühle (B. Braun Melsungen - MSK-Homogenisator, IMA-Disintegrator S) durch Verrühren mit einer geeigneten Menge an Glasperlen aufgeschlossen. Das Zellhomogenat wurde mittels Glasfilternutsche von den Glasperlen getrennt und 30 Minuten bei 30000 x g klarzentrifugiert.
# (§3) Nach 15stündiger Dialyse in Enzym-stabilisierendem Puffer wurden die Enzymaktivitäten in folgenden Testgemischen bestimmt:
# (§4) Aspartat-Kinase Test: 100 mM Tris/HCl (pH 7,5), 1 mM DTT, 400 mM (NH₄)₂SO₄, 20 mM MgCl₂, 400 mM NH₂OH·HCl, 300 mM L-Aspartat, 40 mM ATP und verschiedene Mengen Enzympräparation. Durch Zugabe von 750 µl einer Lösung aus 10 % Fe Cl₃ 6H₂O; 3,3 % TCA; 0,7 N HCl zu 500 µl des Enzymtestgemisches wird die Enzymreaktion nach 30 minütiger Inkubation bei 37 °C gestoppt. Aus der mittels Eichkurvenverfahren photometrisch (ΔE540 nm) bestimmten Aspartyl-beta-Hydroxamat Konzentration wird die in µMol/mg·min (U/mg) angegebenen Enzymaktivität kalkuliert. Die zugehörigen Proteinkonzentrationen wurden nach der Methode von Lowry et al. (Lowry et al. J. Biol. Chem. 193, 265 (1951)) oder Bradford (Bradford Anal. Biochem. 72, 248 (1976)) durchgeführt. Der Aspartyl-β-semialdehyd Dehydrogenase Test enthält 120 mM Diethanolamin (pH 9,0); 40 mM Na AsO₄; 1 mM NADP⁺; 5 mM L-Threonin; 1,3 mM Aspartyl-beta-semialdehyd und verschiedene Mengen Enzympräparation in einem Gesamtvolumen von 1 ml. Die in µMol/mg·min (U/mg) angegebene Aktivitat wird über die photometrisch […] bestimmte NADPH Synthesegeschwindigkeit berechnet.
# (§5) Tabelle 1 zeigt, das die bereits von K. Nakayama et al. (K. Nakayama et al. Agr. Biol. Chem. 30, 611 (1966)) angedeutete und von S.N. Kara-Murza et al. (S.N. Kara-Murza Prikladnaya Biokhimiya; Mikrobiologia 14, 345 (1978)) genauer untersuchte Hemmbarkeit des C. glutamicum Wildtyp-Enzyms durch uns reproduziert werden konnte. Dem gegen-übergestellt ist der deutlich differente Charakter des Enzyms der AEC resistenten Mutante DM58-1, deren Aspartat-Kinase nicht mehr konzertiert durch L-Lysin + L-Threonin hemmbar ist. Durch die am Enzym aus ATCC13032 Lysin-analog wirkenden Substanzen S-Aminoethyl-D,L-Cystein (AEC) wird das Enzym der Mutanten ebenfalls nur noch gering beeinflußt. Tabelle 1
# [2] = target: T1, Aspartat-Kinase (AK) aus C. glutamicum ATCC13032 (Wildtyp-Enzym) (Corynebacterium glutamicum, UniProt P26512); test: as above
# T1 construct: Rohextrakten identisch gezogener; endogenous in cells; host or cells: C. glutamicum ATCC13032, dialysed crude extract
# T1 sequence (P26512 1-421): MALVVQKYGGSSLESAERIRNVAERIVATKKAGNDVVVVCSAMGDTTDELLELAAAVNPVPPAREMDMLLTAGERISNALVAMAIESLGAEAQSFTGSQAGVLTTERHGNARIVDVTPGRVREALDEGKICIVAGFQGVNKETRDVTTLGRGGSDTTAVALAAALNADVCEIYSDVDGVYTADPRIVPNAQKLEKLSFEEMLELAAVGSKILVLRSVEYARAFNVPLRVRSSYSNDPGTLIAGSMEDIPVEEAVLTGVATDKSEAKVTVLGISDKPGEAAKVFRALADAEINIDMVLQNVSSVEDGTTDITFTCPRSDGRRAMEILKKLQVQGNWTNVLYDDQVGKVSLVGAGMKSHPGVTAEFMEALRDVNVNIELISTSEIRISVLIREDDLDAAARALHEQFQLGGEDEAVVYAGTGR
# T1 sequence (P26512 1-172 isoform P26512-2): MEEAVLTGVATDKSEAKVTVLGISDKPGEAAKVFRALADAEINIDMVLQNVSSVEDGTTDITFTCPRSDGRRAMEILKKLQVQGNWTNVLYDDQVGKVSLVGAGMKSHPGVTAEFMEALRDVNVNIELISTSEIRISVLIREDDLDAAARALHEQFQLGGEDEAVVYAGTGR
# Protocol: as §1, §2, §3, §4, §5
# [3] = target: Aspartat-Kinase (AK), C. glutamicum ATCC13032 (pCS233) (Corynebacterium glutamicum, UniProt P26512); test: Aspartate kinase test, residual activity with effector combinations
# Protocol: as §1, §2, §3, §4
# (§6) Aspartat-Kinase-Aktivität wurde in Stamm ATCC13032/pCS2, als positive Kontrolle in Stamm DM58-1 und als negative Kontrolle in Stamm ATCC13032 gemessen. Die Stämme wurden in Standard I Bouillon, das mit 4 g/l Glucose, 10 µg/ml Kanamycin und 1 mM MgCl₂ supplementiert war, kultiviert. Kulturbedingungen, Zellernte, Zellaufschluß und Bestimmung der Aspartat-Kinase wurden, wie unter 1.2 beschrieben, durchgeführt. Die Effektoren L-Lys, L-Thr und AEC werden jeweils als Stammlösungen in 100 mM Tris/HCl Puffer mit einem pH von 7,5 zugegeben.
# (§7) Die Aspartat-Kinase-Aktivität und die Hemmbarkeit der Enzymaktivität durch Mischungen von Lysin bzw. AEC und Threonin wurde in den konstruierten Klonen bestimmt. Anzucht, Aufschluß und Aktivitätsbestimmung wurden, wie oben beschrieben, durchgeführt. Außerdem wurde die Fahigkeit der verschiedenen Klone untersucht, L-Lysin auszuscheiden. Hierfür wurde ein Agarplatten-Diffusionstest mit einem L-Lysin-auxotrophen Indikationsstamm von C. glutamicum verwendet. Aus Tabelle 4 ist zu entnehmen, daß sämtliche AEC resistenten Stämme eine partiell deregulierte Aspartat-Kinase-Aktivität besitzen und in der Lage sind, L-Lysin auszuscheiden. Tabelle 3
# [4] = target: Aspartat-Kinase (AK), C. glutamicum ATCC13032 (pCS2) (Corynebacterium glutamicum, UniProt P26512); test: as above
# Protocol: as §1, §2, §3, §4, §6, §7
# [5] = target: Aspartat-Kinase (AK), C. glutamicum ATCC13032 (pCS21) (Corynebacterium glutamicum, UniProt P26512); test: as above
# Protocol: as §1, §2, §3, §4, §6, §7
# [6] = target: Aspartat-Kinase (AK), C. glutamicum ATCC13032 (pCS24) (Corynebacterium glutamicum, UniProt P26512); test: as above
# Protocol: as §1, §2, §3, §4, §6, §7
# [7] = target: Aspartat-Kinase (AK), C. glutamicum DM58-1 (pZ1) (Corynebacterium glutamicum, UniProt P26512); test: as above
# Protocol: as §1, §2, §3, §4, §6, §7
# [8] = target: Aspartat-Kinase (AK), C. glutamicum ATCC13032 (pCS26) (Corynebacterium glutamicum, UniProt P26512); test: as above
# Protocol: as §1, §2, §3, §4, §6, §7
# [9] = target: Aspartat-Kinase (AK), C. glutamicum ATCC13032 pCS22 (Corynebacterium glutamicum, UniProt P26512); test: as above
# Protocol: as §1, §2, §3, §4, §6, §7
# [10] = target: Aspartat-Kinase (AK), C. glutamicum ATCC13032 (pCS23) (Corynebacterium glutamicum, UniProt P26512); test: as above
# Protocol: as §1, §2, §3, §4, §6, §7
structure (smiles),measurement,setting,value
"NCCCC[C@H](N)C(=O)O [L-Lys, L-Lysin]",AK-Hemmung,"[1]; 10 mM L-Lys + 1 mM (second inhibitor not named, L-Thr)",12%
same,AK-Hemmung,[1]; 10 mM L-Lys + 10 mM L-Thr,2%
same,AK-Hemmung,[1]; 100 mM L-Lys + 10 mM L-Thr,21%
same,inhibition at 10000 µM,"[2]; read-out: AK-Hemmung, 10 mM L-Lys + 1 mM (second inhibitor not named, L-Thr)",89%
same,inhibition at 10000 µM,"[2]; read-out: AK-Hemmung, 10 mM L-Lys + 10 mM L-Thr",95%
same,inhibition at 100000 µM,"[2]; read-out: AK-Hemmung, 100 mM L-Lys + 10 mM L-Thr",99%
same,AK Restaktivität (%) in Anwesenheit von 10mM Lys 1mM Thr,[3]; 10mM Lys + 1mM Thr,56%
same,AK Restaktivität (%) in Anwesenheit von 10mM Lys 10mM Thr,[3]; 10mM Lys + 10mM Thr,62%
same,AK Restaktivität (%) in Anwesenheit von 100mM Lys 10mM Thr,[3]; 100mM Lys + 10mM Thr,36%
same,AK Restaktivität (%) in Anwesenheit von 10mM Lys 1mM Thr,[4]; 10mM Lys + 1mM Thr,55%
same,AK Restaktivität (%) in Anwesenheit von 10mM Lys 10mM Thr,[4]; 10mM Lys + 10mM Thr,55%
same,AK Restaktivität (%) in Anwesenheit von 100mM Lys 10mM Thr,[4]; 100mM Lys + 10mM Thr,28%
same,AK Restaktivität (%) in Anwesenheit von 10mM Lys 1mM Thr,[5]; 10mM Lys + 1mM Thr,46%
same,AK Restaktivität (%) in Anwesenheit von 10mM Lys 10mM Thr,[5]; 10mM Lys + 10mM Thr,50%
same,AK Restaktivität (%) in Anwesenheit von 100mM Lys 10mM Thr,[5]; 100mM Lys + 10mM Thr,24%
same,AK Restaktivität (%) in Anwesenheit von 10mM Lys 1mM Thr,[6]; 10mM Lys + 1mM Thr,65%
same,AK Restaktivität (%) in Anwesenheit von 10mM Lys 10mM Thr,[6]; 10mM Lys + 10mM Thr,65%
same,AK Restaktivität (%) in Anwesenheit von 100mM Lys 10mM Thr,[6]; 100mM Lys + 10mM Thr,40%
same,AK Restaktivität (%) in Anwesenheit von 10mM Lys 1mM Thr,[7]; 10mM Lys + 1mM Thr,83%
same,AK Restaktivität (%) in Anwesenheit von 10mM Lys 10mM Thr,[7]; 10mM Lys + 10mM Thr,100%
same,AK Restaktivität (%) in Anwesenheit von 100mM Lys 10mM Thr,[7]; 100mM Lys + 10mM Thr,79%
same,AK Restaktivität (%) in Anwesenheit von 10mM Lys 1mM Thr,[8]; 10mM Lys + 1mM Thr,64%
same,AK Restaktivität (%) in Anwesenheit von 10mM Lys 10mM Thr,[8]; 10mM Lys + 10mM Thr,63%
same,AK Restaktivität (%) in Anwesenheit von 100mM Lys 10mM Thr,[8]; 100mM Lys + 10mM Thr,39%
same,AK Restaktivität (%) in Anwesenheit von 10mM Lys 1mM Thr,[9]; 10mM Lys + 1mM Thr,40%
same,AK Restaktivität (%) in Anwesenheit von 10mM Lys 10mM Thr,[9]; 10mM Lys + 10mM Thr,41%
same,AK Restaktivität (%) in Anwesenheit von 100mM Lys 10mM Thr,[9]; 100mM Lys + 10mM Thr,22%
same,AK Restaktivität (%) in Anwesenheit von 10mM Lys 1mM Thr,[10]; 10mM Lys + 1mM Thr,51%
same,AK Restaktivität (%) in Anwesenheit von 10mM Lys 10mM Thr,[10]; 10mM Lys + 10mM Thr,57%
same,AK Restaktivität (%) in Anwesenheit von 100mM Lys 10mM Thr,[10]; 100mM Lys + 10mM Thr,30%
"NCCSCC(N)C(=O)O (racemic) [AEC, S-(Aminoethyl)-D,L-Cystein]",AK-Hemmung,[1]; 10 mM AEC + 1 mM L-Thr,0%
same,AK-Hemmung,[1]; 10 mM AEC + 10 mM L-Thr,0%
same,AK-Hemmung,[1]; 100 mM AEC + 10 mM L-Thr,7%
same,inhibition at 10000 µM,"[2]; 10 mM AEC + 1 mM L-Thr, read-out: AK-Hemmung",12%
same,inhibition at 10000 µM,"[2]; 10 mM AEC + 10 mM L-Thr, read-out: AK-Hemmung",41%
same,inhibition at 100000 µM,"[2]; 100 mM AEC + 10 mM L-Thr, read-out: AK-Hemmung",95%
same,AK Restaktivität (%) in Anwesenheit von 100mM AEC 10mM Thr,[3]; 100mM AEC + 10mM Thr,57%
same,AK Restaktivität (%) in Anwesenheit von 100mM AEC 10mM Thr,[4]; 100mM AEC + 10mM Thr,56%
same,AK Restaktivität (%) in Anwesenheit von 100mM AEC 10mM Thr,[6]; 100mM AEC + 10mM Thr,62%
same,AK Restaktivität (%) in Anwesenheit von 100mM AEC 10mM Thr,[7]; 100mM AEC + 10mM Thr,93%
same,AK Restaktivität (%) in Anwesenheit von 100mM AEC 10mM Thr,[8]; 100mM AEC + 10mM Thr,60%
same,AK Restaktivität (%) in Anwesenheit von 100mM AEC 10mM Thr,[10]; 100mM AEC + 10mM Thr,56%
